# Data: patent US20080293699A1, “Inhibitors of thapsigargin-induced cell death” (priority 2007, published 2008)
# Read-outs that look alike come from different tables or passages of the source.
# Test system: CSM14.1 cells
# Experiment: Primary HTS assay: ATP content (ATPlite) of undifferentiated CSM14.1 cells challenged with thapsigargin
# Assay type: cell-based, rat
# Settings: for IC50: thapsigargin-induced death of undifferentiated CSM14.1, ATP content
# In short: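 Undifferentiated CSM14.1 cells, 3,000/well, cultured overnight at 32 °C, then test compounds at ~15 μg/mL final (1% DMSO) added. Thapsigargin ~15 μM final given after 2 h; ATPlite luminescence read after 24 h as survival surrogate, with 100 μM Salubrinal as maximum and DMSO as minimum.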
# [1] = one value given, read-out: IC50
# [2] = first assay, read-out: IC50 (μM), first value
# [3] = second assay (value in bold), read-out: IC50 (μM), value from a second assay
Compound,"Cytoprotective activity, stimulus Thapsigargin (Result) (readout ATP & Annexin, CSM 14.1, compound ≦25 μM)",IC50 [1] [µM],IC50 [2] [µM],IC50 [3] [µM]
"CCN(CC)c1ccc(C2Nc3ccccc3NC3=C2C(=O)CC(c2ccccc2)C3)cc1 (centres unmarked) [Compound 5962123, 6-(4-diethylaminophenyl)-9-phenyl-5,6,8,9,10,11-hexahydrobenzo[c][1,5]benzodiazepin-7-one]",+ (+indicates ≧50% rescue of cell viability relative to untreated cells not exposed to thapsigargin at compound concentration of ≦25 μM),7.5 ± 0.857,,
COc1ccc(C2CC(=O)C3=C(C2)Nc2ccccc2NC3c2ccccc2C(F)(F)F)cc1OC (centres unmarked) [Compound 6237735],,12.5 ± 0.186,17.2 ± 0.471,12.5 ± 0.186
COc1ccc(C2CC(=O)C3=C(C2)Nc2ccccc2NC3c2cccc(Oc3ccccc3)c2)cc1OC (centres unmarked) [Compound 6239507],,10.2 ± 1.62,13.9 ± 0.26,10.2 ± 1.62
